This is an account of results in patent publication US8124634B2, “CB1 receptor modulators” (7TM Pharma A/S, priority 2006, dated 2012).

The target of the experiment is T1, human CB1 receptor (Homo sapiens, UniProt P21554).
T1 construct: expressed in transfected cells; membranes
T1 sequence (P21554 whole entry): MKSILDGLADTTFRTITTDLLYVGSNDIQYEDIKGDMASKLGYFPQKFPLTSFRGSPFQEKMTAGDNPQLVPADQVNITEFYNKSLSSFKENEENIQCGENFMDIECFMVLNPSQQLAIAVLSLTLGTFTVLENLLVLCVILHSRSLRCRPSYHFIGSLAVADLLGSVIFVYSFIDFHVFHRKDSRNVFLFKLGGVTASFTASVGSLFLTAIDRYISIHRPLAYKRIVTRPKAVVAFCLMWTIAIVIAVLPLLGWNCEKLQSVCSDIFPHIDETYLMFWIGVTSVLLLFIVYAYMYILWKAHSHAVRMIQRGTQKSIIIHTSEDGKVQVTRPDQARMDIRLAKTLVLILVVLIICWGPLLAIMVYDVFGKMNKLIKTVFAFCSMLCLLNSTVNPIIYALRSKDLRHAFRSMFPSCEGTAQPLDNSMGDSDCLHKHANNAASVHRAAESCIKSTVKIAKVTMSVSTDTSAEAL
Kind of experiment: Cannabinoid Receptor-1 functional assay: inhibition of CP55940-induced [35S]GTPγS binding to membranes of CHO-K1 cells expressing human CB1. Format: biochemical. Particulars: 3 nM CP55940, hCB1 membranes, [35S]GTPγS SPA; read-out: IC50 value for antagonizing a CB1 receptor agonist. An excerpt:
Transfection and Cell Culture—The cDNA encoding the human CB1 (Cannabinoid Receptor-1) receptor (GenBank accession number NM_016083) was cloned from a human adipose tissue cDNA library and cloned into the eukaryotic expression vector pcDNA3.1 (Invitrogen).
Chinese Hamster Ovary cells (CHO-K1) stably expressing recombinant human CB1 were generated by transfecting the plasmid containing the coding sequence of the human CB1 receptor in CHO-K1 cells, using lipofectamin, according to the manufacturer instructions. Resistant clones were selected in the presence of 600 μg/ml G418 (Life technology). Stably transfected CHO-K1 cells were maintained in Ham's F-12 culture medium (Invitrogen), supplemented with 10% fetal calf serum (Invitrogen), 100 U/ml penicillin, 100 μg/ml streptomycin (Life Technology), and 600 μg/ml G418.
Cannabinoid Receptor-1 Functional Assay.
Functional activities of the above examples of compounds of the invention were assessed in vitro by measuring their ability to inhibit CP55940-induced [^35S]GTPγS binding to membranes prepared from CHO-K1 cells expressing the human CB1 receptor (described in Transfection and Cell Culture). CP55940 is a well known non-selective CB1 and CB2 receptor agonist (e.g Felder et al., 1995, Molecular Pharmacology, (48) 443-50). Membranes were prepared by a standard procedure. Briefly, cells were harvested using 10 mM EDTA and collected by centrifugation. Pelleted cells were homogenized in ice-cold 20 mM Hepes (pH 7.4),10 mM EDTA and protease inhibitors (Complete protease inhibitor cocktail tablet, Roche) using an Ultra Turrax Homogenizer. The homogenate was centrifuged at 14 000 rpm for 45 min. at 4° C. The resultant pellet was resuspended in the same buffer but with only 0.1 mM EDTA and was again centrifuged at 14 000 rpm for 45 min. at 4° C. The resulting pellet (membranes) was resuspended in 20 mM Hepes (pH 7.4), 0.1 mM EDTA, 2 mM MgCl2 and protease inhibitors and protein concentration was determined by Micro BCA Protein Assay Reagent Kit (Pierce Biotechnology) according to the manufacturer instructions. The [^35S]GYPγS SPA (Scintillation Proximity Assay) binding assay was performed by incubating 5 μg/well hCB1-membranes with 1 nM [^35S]GYPγS (Perkin Elmer—NEG 030H) in the presence of 3 nM of CP55940 and various concentrations of the test compounds at room temperature for 1 hr in 96-well microtiter plates. 0.4 mg/well SPA beads (PVT-WGA; RPNQ0001 Amersham Pharmacia Biotech) were then added and the incubation continued for further 30 min. on an orbital shaker. The assay buffer contained 50 mM HEPES (pH 7.5), 50 mM NaCl, 2.5 mM MgCl2, 0.1% BSA, 1 μM GDP and 100 μg/ml Saponin. Microtiter plates were centrifuged at 1500 rpm for 5 min. and radioactivity was read immediately using a Topcounter (PerkinElmer Life Sciences). Data were analyzed and IC50 values determined by non-linear regression using the Prism software (GraphPad Software, San Diego).
(In general: GTPγS is a poorly hydrolysed GTP analogue; its binding reports G protein activation.)
On to `CC(C)(NC(=O)c1nn(-c2ccccc2Cl)c(-c2ccc(Cl)cc2)c1CC(=O)O)c1ccc(F)cc1` [Compound [1.1], {1-(2-Chloro-phenyl)-5-(4-chloro-phenyl)-3-[1-(4-fluoro-phenyl)-1-methyl-ethylcarbamoyl]-1H-pyrazol-4-yl}-acetic acid], for which the IC50 – broadly, the concentration that gives 50% inhibition – was below 300 nM.

Take `C[C@@H](NC(=O)c1nn(-c2ccccc2Cl)c(-c2ccc(Cl)cc2)c1OCC(=O)O)c1ccc(C(F)(F)F)cc1` [Compound [1.3], {1-(2-Chloro-phenyl)-5-(4-chloro-phenyl)-3-[(R)-1-(4-trifluoromethyl-phenyl)-ethylcarbamoyl]-1H-pyrazol-4-yloxy}-acetic acid]: the IC50 was below 300 nM.

As for `C[C@H](c1ccc(C(F)(F)F)cc1)N(C)C(=O)c1nn(-c2ccccc2Cl)c(-c2ccc(Cl)cc2)c1CC(=O)O` [Compound [1.7], (1-(2-Chloro-phenyl)-5-(4-chloro-phenyl)-3-{methyl-[(R)-1-(4-trifluoromethyl-phenyl)-ethyl]-carbamoyl}-1H-pyrazol-4-yl)-acetic acid], the IC50 is below 300 nM.

In the case of `CC(C(=O)O)c1c(C(=O)N(C)[C@H](C)c2ccc(C(F)(F)F)cc2)nn(-c2ccccc2Cl)c1-c1ccc(Cl)cc1` (stereo partly drawn) [Compound [1.11], 2-{1-(2-Chloro-phenyl)-5-(4-chloro-phenyl)-3-{methyl-[(R)-1-(4-trifluoromethyl-phenyl)-ethyl]-carbamoyl}-1H-pyrazol-4-yl}-propionic acid], the IC50 is below 300 nM.

Consider `C[C@H](c1ccc(C(F)(F)F)cc1)N(C)C(=O)c1nn(-c2ccccc2Cl)c(-c2ccc(Cl)cc2)c1C(O)C(=O)O` (stereo partly drawn) [Compound [1.12], (1-(2-Chloro-phenyl)-5-(4-chloro-phenyl)-3-{methyl-[(R)-1-(4-trifluoromethyl-phenyl)-ethyl]-carbamoyl}-1H-pyrazol-4-yl)-2-hydroxyacetic acid], for which the IC50 is below 300 nM.

For the compound `CC(NC(=O)c1nn(-c2ccccc2Cl)c(-c2ccc(Cl)cc2)c1Cc1nnn[nH]1)c1ccc(Br)cc1` (stereo not shown) [Compound [2.1], 1-(2-Chloro-phenyl)-5-(4-chloro-phenyl)-4-(1H-tetrazol-5-ylmethyl)-1H-pyrazole-3-carboxylic acid [1-(4-bromo-phenyl)-ethyl]-amide], the IC50 is below 300 nM.

As for `C[C@@H](NC(=O)c1nn(-c2ccccc2Cl)c(-c2ccc(Cl)cc2)c1OCc1nnn[nH]1)c1ccc(C(F)(F)F)cc1` [Compound [3.1], 1-(2-Chloro-phenyl)-5-(4-chloro-phenyl)-4-(1H-tetrazol-5-ylmethoxy)-1H-pyrazole-3-carboxylic acid [(R)-1-(4-trifluoromethyl-phenyl)-ethyl]-amide], the IC50 is below 300 nM.

As to `C[C@H](Oc1c(C(=O)N[C@H](C)c2ccc(Br)cc2)nn(-c2ccccc2Cl)c1-c1ccc(Cl)cc1)C(=O)O` [[1.2], (S)-2-[3-[(R)-1-(4-Bromo-phenyl)-ethylcarbamoyl]-1-(2-chloro-phenyl)-5-(4-chloro-phenyl)-1H-pyrazol-4-yloxy]-propionic acid], the IC50 was 300 to 3000 nM.

For `C[C@@H](Oc1c(C(=O)N[C@H](C)c2ccc(Br)cc2)nn(-c2ccccc2Cl)c1-c1ccc(Cl)cc1)C(=O)O` [[1.4], (R)-2-[3-[(R)-1-(4-Bromo-phenyl)-ethylcarbamoyl]-1-(2-chloro-phenyl)-5-(4-chloro-phenyl)-1H-pyrazol-4-yloxy]-propionic acid], the IC50 was below 300 nM.

Regarding `C[C@@H](NC(=O)c1nn(-c2ccccc2Cl)c(-c2ccc(Cl)cc2)c1CC(=O)O)c1ccc(C(F)(F)F)cc1` [[1.5], {1-(2-Chloro-phenyl)-5-(4-chloro-phenyl)-3-[(R)-1-(4-trifluoromethyl-phenyl)-ethylcarbamoyl]-1H-pyrazol-4-yl}-acetic acid], the IC50 was below 300 nM.

For `C[C@@H](NC(=O)c1nn(-c2ccccc2Cl)c(-c2ccc(Cl)cc2)c1CC(=O)O)c1ccc(Br)cc1` [[1.6], [3-[(R)-1-(4-Bromo-phenyl)-ethylcarbamoyl]-1-(2-chloro-phenyl)-5-(4-chloro-phenyl)-1H-pyrazol-4-yl]-acetic acid], the IC50 is below 300 nM.

Turning to `CC(c1ccc(S(C)(=O)=O)cc1)N(C)C(=O)c1nn(-c2ccccc2Cl)c(-c2ccc(Cl)cc2)c1CC(=O)O` (stereo not shown) [[1.8], (1-(2-Chloro-phenyl)-5-(4-chloro-phenyl)-3-{methyl-[1-(4-methylsufonyl-phenyl)-ethyl]-carbamoyl}-1H-pyrazol-4-yl)-acetic acid], the IC50 was 300 to 3000 nM.

Take `C[C@H](c1ccc(OC(F)(F)F)cc1)N(C)C(=O)c1nn(-c2ccccc2Cl)c(-c2ccc(Cl)cc2)c1CC(=O)O` [[1.9], (1-(2-Chloro-phenyl)-5-(4-chloro-phenyl)-3-{methyl-[(R)-1-(4-trifluoromethoxy-phenyl)-ethyl]-carbamoyl}-1H-pyrazol-4-yl)-acetic acid]: the IC50 was below 300 nM.

For `CC(C)(Cc1ccccc1)NC(=O)c1nn(-c2ccccc2Cl)c(-c2ccc(Cl)cc2)c1Cc1nnn[nH]1` [[2.2], 1-(2-Chloro-phenyl)-5-(4-chloro-phenyl)-4-(1H-tetrazol-5-ylmethyl)-1H-pyrazole-3-carboxylic acid (1,1-dimethyl-2-phenyl-ethyl)-amide], the IC50 was below 300 nM.

For the compound `C[C@@H](NC(=O)c1nn(-c2ccccc2Cl)c(-c2ccc(Cl)cc2)c1Cc1nn[nH]n1)c1ccc(Br)cc1` [[2.3], 1-(2-Chloro-phenyl)-5-(4-chloro-phenyl)-4-(1H-tetrazol-5-ylmethyl)-1H-pyrazole-3-carboxylic acid [(R)-1-(4-bromo-phenyl)-ethyl]-amide], the IC50 is below 300 nM.

As for `C[C@H](NC(=O)c1nn(-c2ccccc2Cl)c(-c2ccc(Cl)cc2)c1Cc1nnn[nH]1)c1ccc(Br)cc1` [[2.4], 1-(2-Chloro-phenyl)-5-(4-chloro-phenyl)-4-(1H-tetrazol-5-ylmethyl)-1H-pyrazole-3-carboxylic acid [(S)-1-(4-bromo-phenyl)-ethyl]-amide], the IC50 is 300 to 3000 nM.

As to `CC(C)(Cc1ccc(F)cc1)NC(=O)c1nn(-c2ccccc2Cl)c(-c2ccc(Cl)cc2)c1Cc1nn[nH]n1` [[2.5], 5-(4-Chloro-phenyl)-1-(2-chloro-phenyl)-4-(2H-tetrazol-5-ylmethyl)-1H-pyrazole-3-carboxylic acid [2-(4-fluoro-phenyl)-1,1-dimethyl-ethyl]-amide], the IC50 is below 300 nM.

With `C[C@@H](NC(=O)c1nn(-c2ccccc2Cl)c(-c2ccc(Cl)cc2)c1Cc1nn[nH]n1)c1ccc(C(F)(F)F)cc1` [[2.6], 5-(4-Chloro-phenyl)-1-(2-chloro-phenyl)-4-(2H-tetrazol-5-ylmethyl)-1H-pyrazole-3-carboxylic acid [(R)-1-(4-trifluoromethyl-phenyl)-ethyl]-amide], the IC50 was below 300 nM.

Take `CC(C)(NC(=O)c1nn(-c2ccccc2Cl)c(-c2ccc(Cl)cc2)c1Cc1nnn[nH]1)c1ccc(F)cc1` [[2.7], 1-(2-Chloro-phenyl)-5-(4-chloro-phenyl)-4-(1H-tetrazol-5-ylmethyl)-1H-pyrazole-3-carboxylic acid [1-(4-fluoro-phenyl)-1-methyl-ethyl]-amide]: the IC50 is 300 to 3000 nM.

For the compound `C[C@@H](NC(=O)c1nn(-c2ccccc2Cl)c(-c2ccc(Cl)cc2)c1Cc1nnn[nH]1)c1ccc(F)cc1` [[2.8], 1-(2-Chloro-phenyl)-5-(4-chloro-phenyl)-4-(1H-tetrazol-5-ylmethyl)-1H-pyrazole-3-carboxylic acid [(R)-1-(4-fluoro-phenyl)-ethyl]-amide], the IC50 was below 300 nM.

As to `C[C@@H](NC(=O)c1nn(-c2ccccc2Cl)c(-c2ccc(Cl)cc2)c1Cc1nnn[nH]1)c1ccc(Cl)cc1` [[2.9], 1-(2-Chloro-phenyl)-5-(4-chloro-phenyl)-4-(1H-tetrazol-5-ylmethyl)-1H-pyrazole-3-carboxylic acid [(R)-1-(4-chloro-phenyl)-ethyl]-amide], the IC50 was below 300 nM.

As for `CC(NC(=O)c1nn(-c2ccccc2Cl)c(-c2ccc(Cl)cc2)c1Cc1nnn[nH]1)c1ccc(C(F)(F)F)c(F)c1` (stereo not shown) [[2.10], 5-(4-Chloro-phenyl)-1-(2-chloro-phenyl)-4-(1H-tetrazol-5-ylmethyl)-1H-pyrazole-3-carboxylic acid [1-(3-fluoro-4-trifluoromethyl-phenyl)-ethyl]-amide], the IC50 is below 300 nM.
